From article PMC9897792, “Discovery of novel 2-(4-(benzyloxy)-5-(hydroxyl) phenyl) benzothiazole derivatives as multifunctional MAO-B inhibitors for the treatment of Parkinson’s disease” (Journal of Enzyme Inhibition and Medicinal Chemistry, 2023)

Legend:
Type in all cases: cell-based
[1] = test system: ROS release in LPS-treated BV-2 cells; test: LPS-induced ROS release in BV-2 cells (DCFH-DA probe); details: concentration not given, LPS 1.0 µg/mL
Procedure: The inhibitory effect of 3h on LPS-induced ROS release in BV-2 cells in vitro was detected by using 2′,7′-dichlorofluorescein diacetate (DCFH-DA) as probe to quantify the ROS level in LPS-treated BV-2 cells. Noticeably, the fluorescence intensity of control group was relatively low, indicating low level of ROS. […] The fluorescence values were further detected by using microplate reader (Figure 9(B)), and then the inhibition rates were calculated. […] BV-2 cells were incubated with test compound solution (10 µL) for 30 min, then LPS (10 µL, 1.0 µg/ml in PBS) was added to each well, and each well would be incubated for another 30 min at 37 °C. […] The fluorescence was measured with excitation and emission wavelengths at 488 and 525 nm on an inverted fluorescence microscope.

PC-12 cells [2] = test: Cytotoxicity towards PC-12 cells (MTT); details: at the concentration of 10.0 µM
Procedure: (§1) MTT method was used to detect the in vitro neuroprotective effect of 3h on H2O2 induced PC-12 cells injury, with resveratrol as positive control. Firstly, the cytotoxicity of 3h to PC-12 cells was measured. […] […].
(§2) 3-(4,5-dimethylthiazol-2-yl)-2,5-diphenyltetrazolium bromide (MTT) method was conducted to measure the in vitro neuroprotective effect of 3h[44]. Firstly the cytotoxicity of 3h towards PC-12 cells was detected. In detail, PC-12 cells were seeded into 96-well cell culture plate in DMEM (100 µL, 1 × 10^5 cells per mL) firstly. Then, these cells were incubated at 37 °C for 24 h. After incubation, test compound solutions (10 µL) were added to the plate, and the mixture was incubated for another 2 h at 37 °C. Then, MTT solution (100 µL, 5 mg/ml in PBS) was added to each well, which would be incubated at 37 °C for final 4 h. After the final incubation, the supernatants were removed, and the formazan was dissolved in DMSO (150 µL). Then, the absorbance at 490 nm was determined by using a Varioskan Flash Multimode Reader (Thermo Scientific). As for the assay to evaluate the neuroprotective effect of 3h, the procedures were almost similar, but after the incubation of cells with 3h, H2O2 (100 µM) was added and the mixture was further incubated for 24 h.

[3] = test system: NO release in LPS-activated BV-2 microglia cells; test: LPS-induced NO release in BV-2 cells (Griess method); details: Mus musculus, 10.0 µM, LPS 1.0 µg/mL, read-out: inhibitory rate of LPS-induced NO release
Procedure: Then, Griess method was performed to measure the inhibitory effect of 3h on LPS-induced NO release in BV-2 cells. […] It reflected that LPS could induce the activation of BV-2 cells and induce neuroinflammation.
(§3) ELISA and Griess reaction methods were performed to detect the inhibitory effect of 3h on the release of TNF-α and NO in LPS-stimulated BV-2 cells[46]^,[47]. BV-2 cells in the logarithmic phase were seeded into 96-well cell culture plate, and these cells were incubated at 37 °C for 24 h at the atmosphere of 5% CO2. After incubation, the culture solution was replaced by fresh one (90 µL without serum), and test compound solution (10 µL) was added. After addition, the plate was incubated for 30 min, then LPS (10 µL, 1.0 µg/ml in PBS) was added to each well, and the mixture would be incubated for another 24 h at 37 °C. After the final incubation, the supernatants were taken out to measure the level of TNF-α and NO according to the procedures depicted on the kits (kits were purchased from Nanjing Jiancheng Bioengineering Institute).

[4] = test system: TNF-α production in LPS-activated BV-2 microglia cells; test: LPS-induced TNF-α production in BV-2 cells (ELISA); details: Mus musculus, 10.0 µM, LPS 1.0 µg/mL, read-out: inhibition rate of LPS-induced TNF-α production
Procedure: ELISA method was carried out to detect the inhibitory effects of 3h on LPS-induced TNF-α production. As shown in Figure 8(B), the level of TNF-α expression was dramatically raised when BV-2 cells were exposed to LPS (1.0 µg/mL).
as §3

PC-12 cells [5] = test: Neuroprotective effect on H2O2 induced PC-12 cells injury (MTT); details: 10.0 µM; H2O2 100 µM (model 50.1%)
Procedure: as §1, §2

BV-2 cells = test: Cytotoxicity towards BV-2 cells with or without LPS (MTT); details: up to 10.0 µM in the presence or absence LPS (1.0 µg/mL)
Procedure: The in vitro anti-neuroinflammatory activity of 3h was detected by using LPS-induced inflammation mode in BV-2 cells, with resveratrol as the positive control compound[45]. The cytotoxicities of resveratrol and 3h to BV-2 cells were firstly detected by MTT method.
Firstly, the MTT method was carried out to determine the cytotoxicity of 3h towards BV-2 cell line[45]. BV-2 cells in the logarithmic phase were seeded into 96-well cell culture plate, followed by the incubation at 37 °C for 24 h at the atmosphere of 5% CO2. After incubation, the culture was replaced by fresh one (90 µL without serum), and test compound solution (10 µL) was added. Then, the mixture was incubated for another 30 min, and MTT (100 µL, 0.5 mg/ml in PBS) was added to each well. After the final incubation at 37 °C for 4 h, the supernatants were removed, and the formazan was dissolved in 200 µL of DMSO. Then, the absorbance at 490 nm was determined by using a Varioskan Flash Multimode Reader (Thermo Scientific). As for the method to evaluate the cytotoxicity of 3h towards LPS-stimulated BV-2 cells, the procedures were almost similar, but after the incubation of cells with 3h, LPS (10 µL, 1.0 µg/mL) was added, and the mixture was further incubated for 24 h.

SMILES: Oc1ccc(/C=C/c2cc(O)cc(O)c2)cc1 [resveratrol, reference compound]
- inhibition rate of LPS-induced ROS release [1]: 59.8%
- PC-12 cell viability (cytotoxicity) (PC-12 cells [2]): did not significantly alter the PC-12 cell viability
- inhibition at 10 µM [3]: 51.2%
- inhibition at 10 µM [4]: 50.3%
- cell viability of H2O2-injured PC-12 cells (PC-12 cells [5]): 64.3 % of control value
- BV-2 cell viability (cytotoxicity) (BV-2 cells): did not significantly alter the BV-2 cell viability
